Tests used:
Test in all cases: relative viability (nuclei count vs DMSO), 5 days (fraction); higher = more cells survive
[1] = compound: CC1=C(C(=NN1)C)CC2=C(C3=C(S2)N(C(=O)N(C3=O)C)CC(C)C)C(=O)N4C[C@@H](CO4)O + CS(=O)(=O)CCNCc1ccc(-c2ccc3ncnc(Nc4ccc(OCc5cccc(F)c5)c(Cl)c4)c3c2)o1 [Lapatinib] (partner 2 µM)
Summary of the method: (§1)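 Values are medians from duplicate plates. Each reflects relative viability, defined as the nuclei count of treated wells over that of vehicle wells. Lung cancer cell lines in 1536-well plates were pin-tool dosed one day after seeding with one drug alone or with a fixed anchor-drug dose plus five library-drug doses (not always all listed) in √10 steps, then fixed, stained and imaged at 4× after 5 days.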

[2] = compound: Cc1ccccc1C(C(=O)NC1CCCCC1)N(C(=O)Cn1ccnc1C)c1cccc(F)c1 [IDH-C35] + N=C(N)NC(=N)NCCc1ccccc1 [Phenformin] (partner 250 µM)
Summary of the method: as §1

[3] = compound: Cc1ccccc1C(C(=O)NC1CCCCC1)N(C(=O)Cn1ccnc1C)c1cccc(F)c1 [IDH-C35] + CC(=O)c1c(C)c2cnc(Nc3ccc(N4CCNCC4)cn3)nc2n(C2CCCC2)c1=O [Palbociclib] (partner 0.5 µM)
Summary of the method: as §1

[4] = compound: Cc1ccccc1C(C(=O)NC1CCCCC1)N(C(=O)Cn1ccnc1C)c1cccc(F)c1 [IDH-C35] + CCNC(=O)c1noc(-c2cc(C(C)C)c(O)cc2O)c1-c1ccc(CN2CCOCC2)cc1 [Luminespib] (partner 0.01 µM)
Summary of the method: as §1

| Cell Line | relative viability ([1]; first compound 0.0025 µM) | relative viability ([1]; first compound 0.007906 µM) | relative viability ([1]; first compound 0.025 µM) | relative viability ([1]; first compound 0.07906 µM) | relative viability ([1]; first compound 0.25 µM) | relative viability ([2]; first compound 0.08 µM) | relative viability ([2]; first compound 0.253 µM) | relative viability ([2]; first compound 0.8 µM) | relative viability ([2]; first compound 2.53 µM) | relative viability ([2]; first compound 8 µM) | relative viability ([3]; first compound 0.08 µM) | relative viability ([3]; first compound 0.253 µM) | relative viability ([3]; first compound 0.8 µM) | relative viability ([3]; first compound 2.53 µM) | relative viability ([3]; first compound 8 µM) | relative viability ([4]; first compound 0.08 µM) | relative viability ([4]; first compound 0.253 µM) | relative viability ([4]; first compound 0.8 µM) | relative viability ([4]; first compound 2.53 µM) | relative viability ([4]; first compound 8 µM) |
| --- | --- | --- | --- | --- | --- | --- | --- | --- | --- | --- | --- | --- | --- | --- | --- | --- | --- | --- | --- | --- |
| NCI-H2023 | 1.1 | 0.965 | 0.903 | 1.03 | 0.861 | 0.405 | 0.376 | 0.404 | 0.41 | 0.351 | 0.398 | 0.34 | 0.378 | 0.384 | 0.357 | 0.617 | 0.769 | 0.854 | 0.722 | 0.506 |
| NCI-H520 | 0.983 | 0.823 | 0.621 | 0.496 | 0.544 | 0.588 | 0.665 | 0.652 | 0.525 | 0.699 | 0.206 | 0.268 | 0.215 | 0.225 | 0.23 | 0.26 | 0.189 | 0.27 | 0.21 | 0.269 |
| RERF-LC-KJ | 0.899 | 0.928 | 0.86 | 0.885 | 0.941 | 0.415 | 0.443 | 0.419 | 0.456 | 0.403 | 1.08 | 1.03 | 0.991 | 1.1 | 1.09 | 1.21 | 1.34 | 1.22 | 1.17 | 1.19 |
| A-427 | 1 | 1.09 | 0.679 | 1.02 | 1.08 | 0.359 | 0.3 | 0.338 | 0.314 | 0.312 | 0.529 | 0.527 | 0.511 | 0.512 | 0.545 | 0.914 | 0.892 | 0.785 | 0.87 | 0.852 |
| NCI-H1792 | 0.963 | 0.931 | 0.834 | 0.746 | 0.824 | 0.257 | 0.258 | 0.244 | 0.483 | 0.334 | 0.711 | 0.609 | 0.646 | 0.679 | 0.673 | 0.477 | 0.473 | 0.499 | 0.413 | 0.493 |
| SK-LU-1 | 0.805 | 0.425 | 0.263 | 0.295 | 0.4 | 0.604 | 0.541 | 0.558 | 0.628 | 0.527 | 0.47 | 0.387 | 0.366 | 0.391 | 0.418 | 0.219 | 0.207 | 0.188 | 0.225 | 0.259 |
| PC-3 [JPC-3] | 0.475 | 0.411 | 0.501 | 0.522 | 0.427 | 0.471 | 0.447 | 0.521 | 0.509 | 0.453 | 0.563 | 0.532 | 0.558 | 0.587 | 0.534 | 0.737 | 0.596 | 0.728 | 0.771 | 0.692 |
| EMC-BAC-2 | 0.604 | 0.987 | 0.907 | 0.861 | 0.957 | 0.5 | 0.584 | 0.583 | 0.508 | 0.493 | 0.522 | 0.505 | 0.563 | 0.543 | 0.497 | 1.18 | 1.18 | 1.18 | 1.14 | 1.14 |
| LK-2 | 0.987 | 0.933 | 0.787 | 0.903 | 0.851 | 0.564 | 0.474 | 0.476 | 0.27 | 0.623 | 0.558 | 0.717 | 0.683 | 0.746 | 0.74 | 0.173 | 0.177 | 0.205 | 0.176 | 0.184 |
| NCI-H2126 | 0.816 | 0.739 | 0.78 | 0.741 | 0.739 | 0.529 | 0.548 | 0.525 | 0.525 | 0.483 | 0.349 | 0.362 | 0.333 | 0.351 | 0.359 | 0.841 | 0.858 | 0.892 | 0.897 | 0.883 |
| NCI-H3122 | 1.06 | 1.03 | 1.01 | 0.993 | 1.02 | 0.391 | 0.372 | 0.4 | 0.376 | 0.359 | 0.183 | 0.178 | 0.186 | 0.187 | 0.182 | 0.0958 | 0.105 | 0.0707 | 0.106 | 0.0868 |
| NCI-H1975 | 0.792 | 0.942 | 0.916 | 0.995 | 1.08 | 0.411 | 0.406 | 0.401 | 0.425 | 0.401 | 0.642 | 0.653 | 0.606 | 0.67 | 0.56 | 0.165 | 0.244 | 0.206 | 0.276 | 0.135 |
| NCI-H1944 | 0.877 | 0.94 | 0.951 | 0.822 | 0.92 | 0.212 | 0.183 | 0.202 | 0.18 | 0.192 | 0.376 | 0.345 | 0.338 | 0.317 | 0.323 | 0.79 | 0.715 | 0.656 | 0.681 | 0.763 |
| LU99A | 1.22 | 0.982 | 0.9 | 0.975 | 1.11 | 1.04 | 0.941 | 0.919 | 0.776 | 0.858 | 0.38 | 0.418 | 0.394 | 0.398 | 0.403 | 0.244 | 0.286 | 0.239 | 0.236 | 0.25 |
| SW 1573 | 1.09 | 1.02 | 1.05 | 1.04 | 1.19 | 0.456 | 0.372 | 0.387 | 0.359 | 0.352 | 0.43 | 0.432 | 0.388 | 0.462 | 0.353 | 0.136 | 0.218 | 0.257 | 0.442 | 0.248 |
| NCI-H2347 | 0.993 | 0.956 | 0.86 | 0.964 | 1.09 | 0.421 | 0.516 | 0.362 | 0.474 | 0.241 | 0.432 | 0.469 | 0.42 | 0.475 | 0.448 | 0.653 | 0.575 | 0.48 | 0.508 | 0.369 |

From the supplement of paper PMC10307832
